Measurements reported in the NIST ThermoML archive (doi:10.1021/je030207i).

Columns and labels:
[1] = excess molar enthalpy (molar enthalpy of mixing); xn = mol fraction of the nth substance listed; settings: 101.3 kPa, Liquid, Flow calorimetry
[2] = Liquid; for Normal boiling temperature: Ebulliometric method (Recirculating still); for mass density: 298.15 K, 101.3 kPa

OCCO [1,2-ethanediol] + CO
[1]
Settings	excess molar enthalpy [kcal/mol]
298.15 K, x1 = 0.037	0.00564
298.15 K, x1 = 0.0748	0.0106
298.15 K, x1 = 0.1137	0.0147
298.15 K, x1 = 0.1538	0.0184
298.15 K, x1 = 0.195	0.0216
298.15 K, x1 = 0.2374	0.024
298.15 K, x1 = 0.2811	0.0263
298.15 K, x1 = 0.3262	0.0274
298.15 K, x1 = 0.3726	0.0287
298.15 K, x1 = 0.4206	0.0289
298.15 K, x1 = 0.4701	0.0289
298.15 K, x1 = 0.5212	0.0282
298.15 K, x1 = 0.574	0.027
298.15 K, x1 = 0.6286	0.0251
298.15 K, x1 = 0.6851	0.0226
298.15 K, x1 = 0.7436	0.0197
298.15 K, x1 = 0.8042	0.0157
298.15 K, x1 = 0.867	0.0114
298.15 K, x1 = 0.9321	0.00591
308.15 K, x1 = 0.0372	0.00594
308.15 K, x1 = 0.0752	0.0113
308.15 K, x1 = 0.1143	0.0158
308.15 K, x1 = 0.1545	0.0196
308.15 K, x1 = 0.1958	0.0234
308.15 K, x1 = 0.2384	0.0258
308.15 K, x1 = 0.2822	0.0282
308.15 K, x1 = 0.3274	0.0298
308.15 K, x1 = 0.3739	0.0307
308.15 K, x1 = 0.4219	0.0314
308.15 K, x1 = 0.4715	0.0311
308.15 K, x1 = 0.5226	0.0302
308.15 K, x1 = 0.5754	0.0285
308.15 K, x1 = 0.6299	0.0269
308.15 K, x1 = 0.6863	0.0243
308.15 K, x1 = 0.7447	0.021
308.15 K, x1 = 0.8051	0.0169
308.15 K, x1 = 0.8676	0.0121
308.15 K, x1 = 0.9325	0.00632
323.15 K, x1 = 0.0371	0.00686
323.15 K, x1 = 0.075	0.0127
323.15 K, x1 = 0.114	0.0179
323.15 K, x1 = 0.154	0.0219
323.15 K, x1 = 0.1953	0.0258
323.15 K, x1 = 0.2378	0.0291
323.15 K, x1 = 0.2815	0.0316
323.15 K, x1 = 0.3266	0.0332
323.15 K, x1 = 0.3732	0.0343
323.15 K, x1 = 0.4211	0.035
323.15 K, x1 = 0.4706	0.0344
323.15 K, x1 = 0.5218	0.034
323.15 K, x1 = 0.5746	0.0322
323.15 K, x1 = 0.6292	0.0298
323.15 K, x1 = 0.6856	0.0271
323.15 K, x1 = 0.744	0.0231
323.15 K, x1 = 0.8046	0.0185
323.15 K, x1 = 0.8673	0.013
323.15 K, x1 = 0.9323	0.00668

OCCO [1,2-ethanediol]
Settings	Normal boiling temperature [°C]
[2]	197.23

OCCO [1,2-ethanediol] + CCCO
excess molar enthalpy [kcal/mol], [1]
Settings	298.15 K	308.15 K	323.15 K
x1 = 0.0644	–	–	0.0566
x1 = 0.0664	0.0498	0.0535	–
x1 = 0.13	0.0849	0.0912	0.0966
x1 = 0.1915	0.109	0.117	0.125
x1 = 0.2511	0.126	0.135	0.144
x1 = 0.3089	0.137	0.147	0.156
x1 = 0.3648	0.144	0.152	0.163
x1 = 0.4191	0.147	0.155	–
x1 = 0.4192	–	–	0.167
x1 = 0.4718	0.147	0.156	0.167
x1 = 0.5229	0.144	0.153	0.163
x1 = 0.5725	0.138	0.148	0.158
x1 = 0.6207	0.132	0.141	0.15
x1 = 0.6676	0.124	0.132	0.141
x1 = 0.7131	0.114	0.121	0.129
x1 = 0.7574	0.102	0.109	0.116
x1 = 0.8005	0.0897	0.0942	0.101
x1 = 0.8425	0.0741	0.0784	0.0838
x1 = 0.8833	–	–	0.0651
x1 = 0.8834	0.0581	0.0611	–
x1 = 0.9231	–	–	0.0448
x1 = 0.9232	0.04	0.0426	–
x1 = 0.9619	0.0209	0.0218	0.0229

OCCO [1,2-ethanediol] + CC(C)O
[1]
Settings	excess molar enthalpy [kcal/mol]
298.15 K, x1 = 0.0678	0.0521
298.15 K, x1 = 0.1326	0.0876
298.15 K, x1 = 0.1951	0.112
298.15 K, x1 = 0.2555	0.128
298.15 K, x1 = 0.3138	0.138
298.15 K, x1 = 0.3702	0.143
298.15 K, x1 = 0.4248	0.145
298.15 K, x1 = 0.4776	0.144
298.15 K, x1 = 0.5287	0.14
298.15 K, x1 = 0.5782	0.134
298.15 K, x1 = 0.6262	0.127
298.15 K, x1 = 0.6727	0.118
298.15 K, x1 = 0.7178	0.107
298.15 K, x1 = 0.7617	0.0951
298.15 K, x1 = 0.8042	0.0815
298.15 K, x1 = 0.8455	0.0677
298.15 K, x1 = 0.8857	0.0523
298.15 K, x1 = 0.9248	0.036
298.15 K, x1 = 0.9628	0.0185
308.15 K, x1 = 0.0675	0.0506
308.15 K, x1 = 0.1325	0.0874
308.15 K, x1 = 0.1953	0.112
308.15 K, x1 = 0.2558	0.128
308.15 K, x1 = 0.3143	0.138
308.15 K, x1 = 0.3708	0.144
308.15 K, x1 = 0.4254	0.145
308.15 K, x1 = 0.4783	0.144
308.15 K, x1 = 0.5294	0.141
308.15 K, x1 = 0.589	0.135
308.15 K, x1 = 0.627	0.127
308.15 K, x1 = 0.6735	0.118
308.15 K, x1 = 0.7186	0.107
308.15 K, x1 = 0.7624	0.0959
308.15 K, x1 = 0.8049	0.0828
308.15 K, x1 = 0.8462	0.0682
308.15 K, x1 = 0.8863	0.0527
308.15 K, x1 = 0.9252	0.0366
308.15 K, x1 = 0.9631	0.0188
323.15 K, x1 = 0.0678	0.0469
323.15 K, x1 = 0.1326	0.0815
323.15 K, x1 = 0.1951	0.105
323.15 K, x1 = 0.2555	0.121
323.15 K, x1 = 0.3138	0.131
323.15 K, x1 = 0.3702	0.138
323.15 K, x1 = 0.4247	0.14
323.15 K, x1 = 0.4775	0.14
323.15 K, x1 = 0.5286	0.136
323.15 K, x1 = 0.5781	0.131
323.15 K, x1 = 0.6261	0.124
323.15 K, x1 = 0.6727	0.116
323.15 K, x1 = 0.7178	0.105
323.15 K, x1 = 0.7617	0.0939
323.15 K, x1 = 0.8042	0.0816
323.15 K, x1 = 0.8456	0.0673
323.15 K, x1 = 0.8858	0.0522
323.15 K, x1 = 0.9248	0.036
323.15 K, x1 = 0.9628	0.0189

CO [methanol]
[2]
Settings	Normal boiling temperature [°C]	mass density [kg/m3]
–	64.47	786.4

CCCCO [butan-1-ol]
[2]
Settings	Normal boiling temperature [°C]	mass density [kg/m3]
–	117.71	805.9
